Source: patent publication US12723063B2, “GIPR-agonist compounds” (Eli Lilly and Company, priority 2019, dated 2026)

Experiments:
[1] = target: T1, human glucose-dependent insulinotropic peptide receptor (GIPR) (Homo sapiens, UniProt P48546); experiment: cAMP functional assay (HTRF) in HEK293 cells in presence of 0.1% casein; assay type: cell-based; conditions: HEK293 cells expressing human GIPR, geometric mean, read-out: hGIPR cAMP Rel EC50 nM (SEM, n)
T1 construct: expressed in transfected cells; host or cells: HEK293
T1 sequence (P48546 22-466): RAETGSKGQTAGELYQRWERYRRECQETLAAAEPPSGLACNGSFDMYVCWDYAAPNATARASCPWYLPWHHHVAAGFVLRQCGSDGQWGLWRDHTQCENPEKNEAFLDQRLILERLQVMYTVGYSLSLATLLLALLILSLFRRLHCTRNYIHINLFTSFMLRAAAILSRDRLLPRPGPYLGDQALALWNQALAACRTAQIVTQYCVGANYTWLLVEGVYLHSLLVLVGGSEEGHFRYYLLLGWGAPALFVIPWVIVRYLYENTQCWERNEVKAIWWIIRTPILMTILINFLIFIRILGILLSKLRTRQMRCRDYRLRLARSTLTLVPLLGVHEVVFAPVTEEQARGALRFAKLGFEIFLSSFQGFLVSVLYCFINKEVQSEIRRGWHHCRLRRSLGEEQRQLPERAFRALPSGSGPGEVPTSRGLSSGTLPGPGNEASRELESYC

[2] = target: T2, human glucagon receptor (GcgR) (Homo sapiens, UniProt P47871); experiment: as above; assay type: cell-based; conditions: HEK293 cells expressing human GcgR, geometric mean, read-out: hGcgR cAMP Rel EC50 nM (SEM, n)
T2 construct: expressed in transfected cells; host or cells: HEK293
T2 sequence (P47871 26-477): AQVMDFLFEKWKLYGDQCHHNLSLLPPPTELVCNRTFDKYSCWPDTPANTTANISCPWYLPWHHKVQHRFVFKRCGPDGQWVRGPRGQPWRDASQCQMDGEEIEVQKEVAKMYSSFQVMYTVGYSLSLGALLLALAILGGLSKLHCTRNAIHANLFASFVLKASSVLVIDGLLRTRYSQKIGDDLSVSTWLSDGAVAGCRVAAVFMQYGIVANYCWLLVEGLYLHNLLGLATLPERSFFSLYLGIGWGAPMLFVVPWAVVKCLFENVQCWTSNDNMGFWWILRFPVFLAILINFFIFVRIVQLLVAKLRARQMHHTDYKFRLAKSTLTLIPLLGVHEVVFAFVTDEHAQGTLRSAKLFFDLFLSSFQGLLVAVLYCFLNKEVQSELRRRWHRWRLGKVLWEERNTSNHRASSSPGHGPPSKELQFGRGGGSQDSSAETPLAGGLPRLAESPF

SMILES	EC50 [1]	EC50 [2]
CC[C@H](C)[C@H](NC(=O)[C@H](CO)NC(=O)[C@H](Cc1ccc(O)cc1)NC(=O)[C@H](CC(=O)O)NC(=O)[C@H](CO)NC(=O)[C@@H](NC(=O)[C@H](Cc1ccccc1)NC(=O)[C@@H](NC(=O)CNC(=O)[C@H](CCC(=O)O)NC(=O)[C@@H](C)NC(=O)[C@@H](N)Cc1ccc(O)cc1)[C@@H](C)O)[C@@H](C)CC)C(=O)N[C@@H](CC(C)C)C(=O)N[C@@H](CC(C)C)C(=O)N[C@@H](CC(=O)O)C(=O)N[C@@H](CCCCN)C(=O)N[C@@H](CCCCNC(=O)COCCOCCNC(=O)COCCOCCNC(=O)CC[C@H](NC(=O)CCCCCCCCCCCCCCCCCCC(=O)O)C(=O)O)C(=O)N[C@@H](C)C(=O)N[C@@H](CCC(N)=O)C(=O)NC(C)(C)C(=O)N[C@@H](CC(=O)O)C(=O)N[C@@H](Cc1ccccc1)C(=O)N[C@H](C(=O)N[C@@H](CC(N)=O)C(=O)N[C@@H](Cc1c[nH]c2ccccc12)C(=O)N[C@@H](CC(C)C)C(=O)N[C@@H](CC(C)C)C(=O)N[C@@H](C)C(=O)N[C@@H](CCC(N)=O)C(=O)NCC(=O)N1CCC[C@H]1C(=O)N[C@@H](CO)C(=O)N[C@@H](CO)C(=O)NCC(=O)N[C@@H](C)C(=O)N1CCC[C@H]1C(=O)N1CCC[C@H]1C(=O)N1CCC[C@H]1C(=O)N[C@@H](CO)C(N)=O)C(C)C [Example 1]	0.0476 nM	575 nM
CC[C@H](C)[C@H](NC(=O)[C@H](CO)NC(=O)[C@H](Cc1ccc(O)cc1)NC(=O)[C@H](CC(=O)O)NC(=O)[C@H](CO)NC(=O)[C@@H](NC(=O)[C@H](Cc1ccccc1)NC(=O)[C@@H](NC(=O)CNC(=O)[C@H](CCC(=O)O)NC(=O)[C@@H](C)NC(=O)[C@@H](N)Cc1ccc(O)cc1)[C@@H](C)O)[C@@H](C)CC)C(=O)N[C@@H](CC(C)C)C(=O)N[C@@H](CC(C)C)C(=O)N[C@@H](CC(=O)O)C(=O)N[C@@H](CCCCN)C(=O)N[C@@H](CCCCNC(=O)COCCOCCNC(=O)COCCOCCNC(=O)CC[C@H](NC(=O)CCCCCCCCCCCCCCCCC(=O)O)C(=O)O)C(=O)N[C@@H](C)C(=O)N[C@@H](CCC(N)=O)C(=O)NC(C)(C)C(=O)N[C@@H](CC(=O)O)C(=O)N[C@@H](Cc1ccccc1)C(=O)N[C@H](C(=O)N[C@@H](CC(N)=O)C(=O)N[C@@H](Cc1c[nH]c2ccccc12)C(=O)N[C@@H](CC(C)C)C(=O)N[C@@H](CC(C)C)C(=O)N[C@@H](C)C(=O)N[C@@H](CCC(N)=O)C(=O)NCC(=O)N1CCC[C@H]1C(=O)N[C@@H](CO)C(=O)N[C@@H](CO)C(=O)NCC(=O)N[C@@H](C)C(=O)N1CCC[C@H]1C(=O)N1CCC[C@H]1C(=O)N1CCC[C@H]1C(=O)N[C@@H](CO)C(N)=O)C(C)C [Example 2]	0.0123 nM	608 nM
CC[C@H](C)[C@H](NC(=O)[C@H](Cc1ccccc1)NC(=O)[C@@H](NC(=O)CNC(=O)[C@H](CCC(=O)O)NC(=O)C(C)(C)NC(=O)[C@@H](N)Cc1ccc(O)cc1)[C@@H](C)O)C(=O)N[C@@H](CO)C(=O)N[C@@H](CC(=O)O)C(=O)N[C@@H](Cc1ccc(O)cc1)C(=O)N[C@@H](CO)C(=O)N[C@H](C(=O)N[C@@](C)(CC(C)C)C(=O)N[C@@H](CC(C)C)C(=O)N[C@@H](CC(=O)O)C(=O)N[C@@H](CCCCN)C(=O)N[C@@H](CCCCNC(=O)COCCOCCNC(=O)COCCOCCNC(=O)CC[C@H](NC(=O)CCCCCCCCCCCCCCCCCCC(=O)O)C(=O)O)C(=O)N[C@@H](Cc1c[nH]cn1)C(=O)N[C@@H](CCC(N)=O)C(=O)NC(C)(C)C(=O)N[C@@H](CC(=O)O)C(=O)N[C@@H](Cc1ccccc1)C(=O)N[C@H](C(=O)N[C@@H](CCC(=O)O)C(=O)N[C@@H](Cc1ccncc1)C(=O)N[C@@H](CC(C)C)C(=O)N[C@@H](CC(C)C)C(=O)N[C@@H](CCC(=O)O)C(=O)N[C@@H](C)C(=O)NCC(=O)N1CCC[C@H]1C(=O)N[C@@H](CO)C(=O)N[C@@H](CO)C(=O)NCC(=O)N[C@@H](C)C(=O)N1CCC[C@H]1C(=O)N1CCC[C@H]1C(=O)N1CCC[C@H]1C(=O)N[C@@H](CO)C(N)=O)C(C)C)[C@@H](C)CC [Example 3]	0.0178 nM	1250 nM
CC[C@H](C)[C@H](NC(=O)[C@H](Cc1ccccc1)NC(=O)[C@@H](NC(=O)CNC(=O)[C@H](CCC(=O)O)NC(=O)C(C)(C)NC(=O)[C@@H](N)Cc1ccc(O)cc1)[C@@H](C)O)C(=O)N[C@@H](CO)C(=O)N[C@@H](CC(=O)O)C(=O)N[C@@H](Cc1ccc(O)cc1)C(=O)N[C@@H](CO)C(=O)N[C@H](C(=O)N[C@@](C)(CC(C)C)C(=O)N[C@@H](CC(C)C)C(=O)N[C@@H](CC(=O)O)C(=O)N[C@@H](CCCN)C(=O)N[C@@H](CCCCNC(=O)COCCOCCNC(=O)COCCOCCNC(=O)CC[C@H](NC(=O)CCCCCCCCCCCCCCCCCCC(=O)O)C(=O)O)C(=O)N[C@@H](Cc1c[nH]cn1)C(=O)N[C@@H](CCC(N)=O)C(=O)NC(C)(C)C(=O)N[C@@H](CC(=O)O)C(=O)N[C@@H](Cc1ccccc1)C(=O)N[C@H](C(=O)N[C@@H](CCC(=O)O)C(=O)N[C@@H](Cc1ccncc1)C(=O)N[C@@H](CC(C)C)C(=O)N[C@@H](CC(C)C)C(=O)N[C@@H](CCC(=O)O)C(=O)N[C@@H](C)C(=O)NCC(=O)N1CCC[C@H]1C(=O)N[C@@H](CO)C(=O)N[C@@H](CO)C(=O)NCC(=O)N[C@@H](C)C(=O)N1CCC[C@H]1C(=O)N1CCC[C@H]1C(=O)N1CCC[C@H]1C(=O)N[C@@H](CO)C(N)=O)C(C)C)[C@@H](C)CC [Example 4]	0.0182 nM	1690 nM
CC[C@H](C)[C@H](NC(=O)[C@H](CCCCN)NC(=O)[C@H](CC(=O)O)NC(=O)[C@H](CC(C)C)NC(=O)[C@](C)(CC(C)C)NC(=O)[C@@H](NC(=O)[C@H](CO)NC(=O)[C@H](Cc1ccc(O)cc1)NC(=O)[C@H](CC(=O)O)NC(=O)[C@H](CO)NC(=O)[C@@H](NC(=O)[C@H](Cc1ccccc1)NC(=O)[C@@H](NC(=O)CNC(=O)[C@H](CCC(=O)O)NC(=O)C(C)(C)NC(=O)[C@@H](N)Cc1ccc(O)cc1)[C@@H](C)O)[C@@H](C)CC)[C@@H](C)CC)C(=O)N[C@@H](Cc1c[nH]cn1)C(=O)N[C@@H](CCC(N)=O)C(=O)NC(C)(C)C(=O)N[C@@H](CC(=O)O)C(=O)N[C@@H](Cc1ccccc1)C(=O)N[C@H](C(=O)N[C@@H](CCC(=O)O)C(=O)N[C@@H](Cc1ccc(O)cc1)C(=O)N[C@@H](CCCCNC(=O)COCCOCCNC(=O)COCCOCCNC(=O)CC[C@H](NC(=O)CCCCCCCCCCCCCCCCCCC(=O)O)C(=O)O)C(=O)N[C@@H](CC(C)C)C(=O)N[C@@H](CCC(=O)O)C(=O)NCC(=O)NCC(=O)N1CCC[C@H]1C(=O)N[C@@H](CO)C(=O)N[C@@H](CO)C(=O)NCC(=O)N[C@@H](C)C(=O)N1CCC[C@H]1C(=O)N1CCC[C@H]1C(=O)N1CCC[C@H]1C(=O)N[C@@H](CO)C(N)=O)C(C)C [Example 5]	0.0148 nM	> 5000 nM
CC[C@H](C)[C@H](NC(=O)[C@H](CCCN)NC(=O)[C@H](CC(=O)O)NC(=O)[C@H](CC(C)C)NC(=O)[C@](C)(CC(C)C)NC(=O)[C@@H](NC(=O)[C@H](CO)NC(=O)[C@H](Cc1ccc(O)cc1)NC(=O)[C@H](CC(=O)O)NC(=O)[C@H](CO)NC(=O)[C@@H](NC(=O)[C@H](Cc1ccccc1)NC(=O)[C@@H](NC(=O)CNC(=O)[C@H](CCC(=O)O)NC(=O)C(C)(C)NC(=O)[C@@H](N)Cc1ccc(O)cc1)[C@@H](C)O)[C@@H](C)CC)[C@@H](C)CC)C(=O)N[C@@H](Cc1c[nH]cn1)C(=O)N[C@@H](CCC(N)=O)C(=O)NC(C)(C)C(=O)N[C@@H](CC(=O)O)C(=O)N[C@@H](Cc1ccccc1)C(=O)N[C@H](C(=O)N[C@@H](CCC(=O)O)C(=O)N[C@@H](Cc1ccc(O)cc1)C(=O)N[C@@H](CCCCNC(=O)COCCOCCNC(=O)COCCOCCNC(=O)CC[C@H](NC(=O)CCCCCCCCCCCCCCCCCCC(=O)O)C(=O)O)C(=O)N[C@@H](CC(C)C)C(=O)N[C@@H](CCC(=O)O)C(=O)NCC(=O)NCC(=O)N1CCC[C@H]1C(=O)N[C@@H](CO)C(=O)N[C@@H](CO)C(=O)NCC(=O)N[C@@H](C)C(=O)N1CCC[C@H]1C(=O)N1CCC[C@H]1C(=O)N1CCC[C@H]1C(=O)N[C@@H](CO)C(N)=O)C(C)C [Example 6]	0.0176 nM	> 5000 nM
CC[C@H](C)[C@H](NC(=O)[C@H](CCCN)NC(=O)[C@H](CC(=O)O)NC(=O)[C@H](CC(C)C)NC(=O)[C@](C)(CC(C)C)NC(=O)[C@@H](NC(=O)[C@H](CO)NC(=O)[C@H](Cc1ccc(O)cc1)NC(=O)[C@H](CC(=O)O)NC(=O)[C@H](CO)NC(=O)[C@@H](NC(=O)[C@H](Cc1ccccc1)NC(=O)[C@@H](NC(=O)CNC(=O)[C@H](CCC(=O)O)NC(=O)C(C)(C)NC(=O)[C@@H](N)Cc1ccc(O)cc1)[C@@H](C)O)[C@@H](C)CC)[C@@H](C)CC)C(=O)N[C@@H](Cc1c[nH]cn1)C(=O)N[C@@H](CCC(N)=O)C(=O)NC(C)(C)C(=O)N[C@@H](CCC(=O)O)C(=O)N[C@@H](Cc1ccccc1)C(=O)N[C@H](C(=O)N[C@H](CCC(=O)O)C(=O)N[C@@H](Cc1ccc(O)cc1)C(=O)N[C@@H](CCCCNC(=O)COCCOCCNC(=O)COCCOCCNC(=O)CC[C@H](NC(=O)CCCCCCCCCCCCCCCCC(=O)O)C(=O)O)C(=O)N[C@@H](CC(C)C)C(=O)N[C@@H](CCC(=O)O)C(=O)NCC(=O)NCC(=O)N1CCC[C@H]1C(=O)N[C@@H](CO)C(=O)N[C@@H](CO)C(=O)NCC(=O)N[C@@H](C)C(=O)N1CCC[C@H]1C(=O)N1CCC[C@H]1C(=O)N1CCC[C@H]1C(=O)N[C@@H](CO)C(N)=O)C(C)C [Example 7]	0.0219 nM	> 5000 nM
